{
  "source": "ChEMBL document CHEMBL1909623",
  "about": "“Synthesis and preliminary evaluation of amiloride analogs as inhibitors of the urokinase-type plasminogen activator (uPA)” (Bioorg Med Chem Lett, 2011)",
  "note": "pIC50: −log10 of the molar value.",
  "data": [
    {"biological_target": "Sodium/hydrogen exchanger 1 (Homo sapiens) (UniProt P19634)", "sequence (P19634 whole entry)": "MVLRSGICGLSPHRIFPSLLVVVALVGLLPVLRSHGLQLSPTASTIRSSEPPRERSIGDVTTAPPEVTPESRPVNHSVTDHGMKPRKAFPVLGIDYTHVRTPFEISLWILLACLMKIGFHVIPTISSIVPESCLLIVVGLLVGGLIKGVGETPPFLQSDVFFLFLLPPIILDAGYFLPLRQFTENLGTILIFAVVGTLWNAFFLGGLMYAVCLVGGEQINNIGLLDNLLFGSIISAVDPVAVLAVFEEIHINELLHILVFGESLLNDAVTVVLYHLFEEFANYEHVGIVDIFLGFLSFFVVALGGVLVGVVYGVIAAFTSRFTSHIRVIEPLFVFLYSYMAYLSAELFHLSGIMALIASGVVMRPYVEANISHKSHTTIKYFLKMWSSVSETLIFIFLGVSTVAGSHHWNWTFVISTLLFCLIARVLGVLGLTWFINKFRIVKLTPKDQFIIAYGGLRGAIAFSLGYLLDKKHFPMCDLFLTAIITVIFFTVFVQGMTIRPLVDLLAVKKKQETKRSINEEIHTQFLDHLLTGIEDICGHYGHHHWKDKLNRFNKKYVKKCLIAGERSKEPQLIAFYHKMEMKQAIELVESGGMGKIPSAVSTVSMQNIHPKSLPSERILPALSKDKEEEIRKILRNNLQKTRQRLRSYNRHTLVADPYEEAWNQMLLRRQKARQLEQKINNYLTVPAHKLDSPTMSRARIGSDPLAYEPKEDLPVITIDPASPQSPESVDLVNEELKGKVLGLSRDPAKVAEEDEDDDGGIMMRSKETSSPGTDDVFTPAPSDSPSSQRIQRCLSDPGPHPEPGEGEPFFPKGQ", "experiment": "Inhibition of NHE1", "units": {"K0.5": "µM"}, "values": [
      {"smiles": "N=C(N)NC(=O)c1nc(Cl)c(N)nc1N", "K0.5": 7}
    ]},
    {"biological_target": "T1, Urokinase-type plasminogen activator (Homo sapiens, UniProt P00749)", "experiment": "Inhibition of urokinase-type plasminogen activator", "values": [
      {"smiles": "CCN(c1nc(N)c(C(=O)NC(=N)N)nc1Cl)C(C)C", "pIC50": 5.22},
      {"smiles": "N=C(N)NC(=O)c1c[nH]cn1", "pIC50": "< 3.00"},
      {"smiles": "N=C(N)NC(=O)c1nc(Cl)c(NCCC(=O)O)nc1N", "pIC50": 3.99},
      {"smiles": "N#CCCNc1nc(N)c(C(=O)NC(=N)N)nc1Cl", "pIC50": 4.80},
      {"smiles": "N=C(N)NC(=O)c1nc(Cl)c(NCc2cccnc2)nc1N", "pIC50": 4.77},
      {"smiles": "N=C(N)NC(=O)c1nc(Cl)c(NCc2ccncc2)nc1N", "pIC50": 5.22},
      {"smiles": "N=C(N)NC(=O)c1nc(Cl)c(NCc2ccc(F)cc2)nc1N", "pIC50": 5.22},
      {"smiles": "N=C(N)NC(=O)c1nc(C#Cc2ccccc2)c(N)nc1N", "pIC50": 5.70},
      {"smiles": "N=C(N)NC(=O)c1nc(Cl)c(NCC[n+]2ccccc2)nc1N", "pIC50": 4.52},
      {"smiles": "N=C(N)NC(=O)c1cnc(Cl)c(Cl)c1", "pIC50": "< 3.00"},
      {"smiles": "N=C(N)NC(=O)c1nc(Br)c(N)nc1N", "pIC50": 5.30},
      {"smiles": "N=C(N)NC(=O)c1nc(Cl)c(NCc2ccccn2)nc1N", "pIC50": 4.42},
      {"smiles": "COc1cc(N)c(Cl)cc1C(=O)NC(=N)N", "pIC50": 3.65},
      {"smiles": "Cc1ccc(S(=O)(=O)NCCNc2nc(N)c(C(=O)NC(=N)N)nc2Cl)cc1", "pIC50": 4.46},
      {"smiles": "N=C(N)NC(=O)c1ccccn1", "note": "[AMINO(PICOLINAMIDO)METHANIMINIUM CHLORIDE]", "pIC50": "< 3.00"},
      {"smiles": "Nc1noc(-c2nc(Cl)c(N)nc2N)n1", "pIC50": "< 3.00"},
      {"smiles": "N=C(N)NC(=O)c1nc(Cl)c(NCP(=O)(O)O)nc1N", "pIC50": "< 3.00"},
      {"smiles": "N=C(N)NC(=O)c1nc(I)c(N)nc1N", "pIC50": 5.70},
      {"smiles": "CCOP(=O)(CCNc1nc(N)c(C(=O)NC(=N)N)nc1Cl)OCC", "pIC50": 4.36},
      {"smiles": "N#CCNc1nc(N)c(C(=O)NC(=N)N)nc1Cl", "pIC50": 4.30},
      {"smiles": "N=C(N)NC(=O)c1nc(Cl)c(NCC(=O)O)nc1N", "pIC50": 3.96},
      {"smiles": "CCN(CC)CCNc1nc(N)c(C(=O)NC(=N)N)nc1Cl", "pIC50": 4.85},
      {"smiles": "NNC(=O)c1nc(Cl)c(N)nc1N", "pIC50": "< 3.00"},
      {"smiles": "N=C(N)NC(=O)c1ncc(N)nc1N", "pIC50": 4.72},
      {"smiles": "N=C(N)NC(=O)c1cnccn1", "pIC50": "< 3.00"},
      {"smiles": "COC(=O)CNc1nc(N)c(C(=O)NC(=N)N)nc1Cl", "pIC50": 4.59},
      {"smiles": "N=C(N)NC(=O)c1nc(Cl)c(NCCP(=O)(O)O)nc1N", "pIC50": "< 3.00"},
      {"smiles": "N=C(N)NC(=O)c1cccnc1", "note": "[AMINO(NICOTINAMIDO)METHANIMINIUM CHLORIDE]", "pIC50": "< 3.00"},
      {"smiles": "N=C(N)NC(=O)c1ccccc1", "note": "[AMINO(BENZAMIDO)METHANIMINIUM CHLORIDE]", "pIC50": "< 3.00"},
      {"smiles": "CCOP(=O)(CNc1nc(N)c(C(=O)NC(=N)N)nc1Cl)OCC", "pIC50": 4.43},
      {"smiles": "CCOP(=O)(O)CCNc1nc(N)c(C(=O)NC(=N)N)nc1Cl", "pIC50": "< 3.00"},
      {"smiles": "N=C(N)NC(=O)c1nc(Cl)c(NCCNCc2ccccc2)nc1N", "pIC50": 4.55},
      {"smiles": "N=C(N)NC(=O)c1nc(Cl)c(NCc2ccccc2)nc1N", "pIC50": 5.10},
      {"smiles": "N=C(N)NC(=O)c1nc(Cl)c(N2CCCCCC2)nc1N", "pIC50": 5.22},
      {"smiles": "N=C(N)NC(=O)c1ncc(NCCc2ccccc2)nc1N", "pIC50": 3.92},
      {"smiles": "CN(CCNc1nc(N)c(C(=O)NC(=N)N)nc1Cl)Cc1ccccc1", "pIC50": 4.82},
      {"smiles": "CCOC(=O)CCNc1nc(N)c(C(=O)NC(=N)N)nc1Cl", "pIC50": 4.60},
      {"smiles": "N=C(N)NC(=O)c1nc(Cl)c(NCCc2ccccc2)nc1N", "pIC50": 4.80},
      {"smiles": "N=C(N)NC(=O)c1nc(Cl)c(NCCS(=O)(=O)Cc2ccccc2)nc1N", "pIC50": 4.82},
      {"smiles": "N=C(N)NC(=O)c1nc(Cl)cnc1N", "pIC50": "< 3.00"},
      {"smiles": "N=C(N)NC(=O)c1ncc(NCc2ccccc2)nc1N", "pIC50": 4.37},
      {"smiles": "N=C(N)NC(=O)c1cnc(N)c(Br)n1", "pIC50": "< 3.00"},
      {"smiles": "N=C(N)NC(=O)c1nc(Cl)c(NCCS(=O)(=O)O)nc1N", "pIC50": "< 3.00"},
      {"smiles": "CCOP(=O)(NNc1nc(N)c(C(=O)NC(=N)N)nc1Cl)OCC", "pIC50": 5.00},
      {"smiles": "N=C(N)NC(=O)c1nc(Cl)c(NCCSCc2ccccc2)nc1N", "pIC50": 4.68},
      {"smiles": "N=C(N)NC(=O)c1nc(Cl)c(NCCc2nnn[nH]2)nc1N", "pIC50": 4.21},
      {"smiles": "N=C(N)NC(=O)c1nc(-c2ccccc2)c(N)nc1N", "pIC50": 5.00},
      {"smiles": "N=C(N)NC(=O)c1nc(Cl)c(NCc2nnn[nH]2)nc1N", "pIC50": 3.75}
    ]},
    {"biological_target": "Sodium/hydrogen exchanger 1 (Homo sapiens) (UniProt P19634)", "experiment": "Ratio of compound K0.5 to amiloride K0.5 for NHE1", "values": [
      {"smiles": "CCN(c1nc(N)c(C(=O)NC(=N)N)nc1Cl)C(C)C", "Ratio": 140},
      {"smiles": "N=C(N)NC(=O)c1nc(Cl)c(N2CCCCCC2)nc1N", "Ratio": 524},
      {"smiles": "CCN(c1nc(N)c(C(=O)NC(=N)N)nc1I)C(C)C", "Ratio": 313},
      {"smiles": "N=C(N)NC(=O)c1nc(Br)c(N2CCCCCC2)nc1N", "Ratio": 566}
    ]},
    {"biological_target": "T1, Urokinase-type plasminogen activator", "experiment": "Ratio of compound K0.5 to amiloride K0.5 for urokinase-type plasminogen activator", "values": [
      {"smiles": "CCN(c1nc(N)c(C(=O)NC(=N)N)nc1Cl)C(C)C", "Ratio IC50": 2},
      {"smiles": "N=C(N)NC(=O)c1nc(Cl)c(N2CCCCCC2)nc1N", "Ratio IC50": 2}
    ]}
  ]
}
